# Source: PubChem BioAssay (NCI)
#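 48-hour exposure; five concentrations; linearly interpolated endpoints. GI50 is the concentration that inhibits growth by half. At the TGI there is no net growth.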
# Assays:
# Experiment in all cases: NCI-60 cell line screen, 48 h
# U251 CNS = tested on: U251 CNS
# COLO 205 colon = tested on: COLO 205 colon
# SK-MEL-28 melanoma = tested on: SK-MEL-28 melanoma
# IGROV1 ovarian = tested on: IGROV1 ovarian
# HCT-116 colon = tested on: HCT-116 colon
# NCI-H522 lung = tested on: NCI-H522 lung
# HCT-15 colon = tested on: HCT-15 colon
# T-47D breast = tested on: T-47D breast
# 786-0 renal = tested on: 786-0 renal
# HOP-92 NSCLC = tested on: HOP-92 NSCLC
# MCF7 breast = tested on: MCF7 breast
# HCC-2998 colon = tested on: HCC-2998 colon
# TK-10 renal = tested on: TK-10 renal
# RPMI-8226 leukemia = tested on: RPMI-8226 leukemia
# SK-MEL-2 melanoma = tested on: SK-MEL-2 melanoma
# SF-295 CNS = tested on: SF-295 CNS
# OVCAR-3 ovarian = tested on: OVCAR-3 ovarian
# OVCAR-8 ovarian = tested on: OVCAR-8 ovarian
# BT-549 breast = tested on: BT-549 breast
# DU-145 prostate = tested on: DU-145 prostate
# SN12C renal = tested on: SN12C renal
# NCI-H460 lung = tested on: NCI-H460 lung
# HL-60(TB) leukemia = tested on: HL-60(TB) leukemia
# ACHN renal = tested on: ACHN renal
# M14 melanoma = tested on: M14 melanoma
# SR leukemia = tested on: SR leukemia
# SW-620 colon = tested on: SW-620 colon
# SF-268 CNS = tested on: SF-268 CNS
# MDA-MB-231 breast = tested on: MDA-MB-231 breast
# SK-MEL-5 melanoma = tested on: SK-MEL-5 melanoma
# HOP-62 NSCLC = tested on: HOP-62 NSCLC
# SNB-75 CNS = tested on: SNB-75 CNS
# LOX IMVI melanoma = tested on: LOX IMVI melanoma
# SF-539 CNS = tested on: SF-539 CNS
# NCI/ADR-RES ovarian = tested on: NCI/ADR-RES ovarian
# A549 NSCLC = tested on: A549 NSCLC
# UO-31 renal = tested on: UO-31 renal
# EKVX NSCLC = tested on: EKVX NSCLC
# PC-3 prostate = tested on: PC-3 prostate
# NCI-H23 lung = tested on: NCI-H23 lung
# HT29 colon = tested on: HT29 colon
# A498 renal = tested on: A498 renal
# SK-OV-3 ovarian = tested on: SK-OV-3 ovarian
# HS 578T breast = tested on: HS 578T breast
# MDA-MB-435 = tested on: MDA-MB-435
# CAKI-1 renal = tested on: CAKI-1 renal
# OVCAR-4 ovarian = tested on: OVCAR-4 ovarian
# KM12 colon = tested on: KM12 colon
# UACC-62 melanoma = tested on: UACC-62 melanoma
# NCI-H226 lung = tested on: NCI-H226 lung
# RXF 393 renal = tested on: RXF 393 renal
# UACC-257 melanoma = tested on: UACC-257 melanoma
# OVCAR-5 ovarian = tested on: OVCAR-5 ovarian
# CCRF-CEM leukemia = tested on: CCRF-CEM leukemia
# SNB-19 CNS = tested on: SNB-19 CNS
# MALME-3M melanoma = tested on: MALME-3M melanoma
# K-562 leukemia = tested on: K-562 leukemia
compound,measurement,setting,value
COc1cc2c3c(n(CCCN=[N+]=[N-])c(=O)c2cc1OC)-c1ccc(NC(C)=O)cc1C3=O,GI50,U251 CNS,> 50 µM
same,TGI,U251 CNS,> 50 µM
same,GI50,COLO 205 colon,> 50 µM
same,TGI,COLO 205 colon,> 50 µM
same,GI50,SK-MEL-28 melanoma,> 50 µM
same,TGI,SK-MEL-28 melanoma,> 50 µM
same,GI50,IGROV1 ovarian,47.3 µM
same,TGI,IGROV1 ovarian,> 50 µM
same,GI50,HCT-116 colon,> 50 µM
same,TGI,HCT-116 colon,> 50 µM
same,GI50,NCI-H522 lung,> 50 µM
same,TGI,NCI-H522 lung,> 50 µM
same,GI50,HCT-15 colon,> 50 µM
same,TGI,HCT-15 colon,> 50 µM
same,GI50,T-47D breast,> 50 µM
same,TGI,T-47D breast,> 50 µM
same,GI50,786-0 renal,> 50 µM
same,TGI,786-0 renal,> 50 µM
same,GI50,HOP-92 NSCLC,> 50 µM
same,TGI,HOP-92 NSCLC,> 50 µM
same,GI50,MCF7 breast,> 50 µM
same,TGI,MCF7 breast,> 50 µM
same,GI50,HCC-2998 colon,> 50 µM
same,TGI,HCC-2998 colon,> 50 µM
same,GI50,TK-10 renal,> 50 µM
same,TGI,TK-10 renal,> 50 µM
same,GI50,RPMI-8226 leukemia,> 50 µM
same,TGI,RPMI-8226 leukemia,> 50 µM
same,GI50,SK-MEL-2 melanoma,> 50 µM
same,TGI,SK-MEL-2 melanoma,> 50 µM
same,GI50,SF-295 CNS,8.96 µM
same,TGI,SF-295 CNS,> 50 µM
same,GI50,OVCAR-3 ovarian,> 50 µM
same,TGI,OVCAR-3 ovarian,> 50 µM
same,GI50,OVCAR-8 ovarian,> 50 µM
same,TGI,OVCAR-8 ovarian,> 50 µM
same,GI50,BT-549 breast,> 50 µM
same,TGI,BT-549 breast,> 50 µM
same,GI50,DU-145 prostate,> 50 µM
same,TGI,DU-145 prostate,> 50 µM
same,GI50,SN12C renal,> 50 µM
same,TGI,SN12C renal,> 50 µM
same,GI50,NCI-H460 lung,8.97 µM
same,TGI,NCI-H460 lung,> 50 µM
same,GI50,HL-60(TB) leukemia,15 µM
same,TGI,HL-60(TB) leukemia,> 50 µM
same,GI50,ACHN renal,> 50 µM
same,TGI,ACHN renal,> 50 µM
same,GI50,M14 melanoma,> 50 µM
same,TGI,M14 melanoma,> 50 µM
same,GI50,SR leukemia,4.85 µM
same,TGI,SR leukemia,> 50 µM
same,GI50,SW-620 colon,> 50 µM
same,TGI,SW-620 colon,> 50 µM
same,GI50,SF-268 CNS,> 50 µM
same,TGI,SF-268 CNS,> 50 µM
same,GI50,MDA-MB-231 breast,> 50 µM
same,TGI,MDA-MB-231 breast,> 50 µM
same,GI50,SK-MEL-5 melanoma,11.2 µM
same,TGI,SK-MEL-5 melanoma,> 50 µM
same,GI50,HOP-62 NSCLC,> 50 µM
same,TGI,HOP-62 NSCLC,> 50 µM
same,GI50,SNB-75 CNS,25.8 µM
same,TGI,SNB-75 CNS,> 50 µM
same,GI50,LOX IMVI melanoma,> 50 µM
same,TGI,LOX IMVI melanoma,> 50 µM
same,GI50,SF-539 CNS,> 50 µM
same,TGI,SF-539 CNS,> 50 µM
same,GI50,NCI/ADR-RES ovarian,> 50 µM
same,TGI,NCI/ADR-RES ovarian,> 50 µM
same,GI50,A549 NSCLC,> 50 µM
same,TGI,A549 NSCLC,> 50 µM
same,GI50,UO-31 renal,46.2 µM
same,TGI,UO-31 renal,> 50 µM
same,GI50,EKVX NSCLC,> 50 µM
same,TGI,EKVX NSCLC,> 50 µM
same,GI50,PC-3 prostate,> 50 µM
same,TGI,PC-3 prostate,> 50 µM
same,GI50,NCI-H23 lung,> 50 µM
same,TGI,NCI-H23 lung,> 50 µM
same,GI50,HT29 colon,> 50 µM
same,TGI,HT29 colon,> 50 µM
same,GI50,A498 renal,> 50 µM
same,TGI,A498 renal,> 50 µM
same,GI50,SK-OV-3 ovarian,> 50 µM
same,TGI,SK-OV-3 ovarian,> 50 µM
same,GI50,HS 578T breast,> 50 µM
same,TGI,HS 578T breast,> 50 µM
same,GI50,MDA-MB-435,> 50 µM
same,TGI,MDA-MB-435,> 50 µM
same,GI50,CAKI-1 renal,8.39 µM
same,TGI,CAKI-1 renal,> 50 µM
same,GI50,OVCAR-4 ovarian,> 50 µM
same,TGI,OVCAR-4 ovarian,> 50 µM
same,GI50,KM12 colon,> 50 µM
same,TGI,KM12 colon,> 50 µM
same,GI50,UACC-62 melanoma,> 50 µM
same,TGI,UACC-62 melanoma,> 50 µM
same,GI50,NCI-H226 lung,> 50 µM
same,TGI,NCI-H226 lung,> 50 µM
same,GI50,RXF 393 renal,> 50 µM
same,TGI,RXF 393 renal,> 50 µM
same,GI50,UACC-257 melanoma,> 50 µM
same,TGI,UACC-257 melanoma,> 50 µM
same,GI50,OVCAR-5 ovarian,> 50 µM
same,TGI,OVCAR-5 ovarian,> 50 µM
same,GI50,CCRF-CEM leukemia,> 50 µM
same,TGI,CCRF-CEM leukemia,> 50 µM
same,GI50,SNB-19 CNS,> 50 µM
same,TGI,SNB-19 CNS,> 50 µM
same,GI50,MALME-3M melanoma,> 50 µM
same,TGI,MALME-3M melanoma,> 50 µM
same,GI50,K-562 leukemia,> 50 µM
same,TGI,K-562 leukemia,> 50 µM
